Source: US20170042152A1, “SAFENED HERBICIDAL COMPOSITIONS COMPRISING PYRIDINE CARBOXYLIC ACIDS” (priority 2015, published 2017)

Tests used:
lambsquarters (CHEAL) [1] = assay: Small plot field trial, weed growth reduction; assay type: in vivo, Chenopodium album; settings: 20 g ae/ha herbicide (triisopropanol amine salt), no safener, post-emergence, mean
durum wheat (TRZDU) = assay: Small plot field trial, crop safety; assay type: in vivo, Triticum durum; settings: 20 g ae/ha herbicide (triisopropanol amine salt), no safener, post-emergence, mean
Protocol: (§1) The triisopropanol amine salts of herbicides of formulas I-G-A, I-G-B and I-G-C were tested with and without cloquintocet-mexyl in small plot field trials across various ecozones to evaluate the crop safety of these compounds on […] cereals including winter wheat and durum wheat.
(§2) All herbicide treatments were applied post-emergence in the spring to early summer. Herbicides were applied with bicycle or tractor-mounted sprayers using carbon dioxide (CO2) as a propellant. The sprayers delivered a uniform spray pattern that provided thorough coverage of the foliage using a 150 or 200 L/ha spray volume. At the time of herbicide applications, winter wheat was at the two leaf growth stage and durum wheat was at the 2-3 leaf growth stage.
(§3) Phytotoxicity to cereal crops was visually assessed as percent overall injury, compared to an untreated control plot. The overall injury assessments were based on visual ratings of growth inhibition, chlorosis, and delay in maturity. At late ratings (54-57 days after application), percent visual seed head deformity and reduction in seed formation were also assessed. Trials were designed as randomized complete blocks with four replicates. In general, three to four replicates were assessed for each treatment.

wild buckwheat (POLCO) = assay: Greenhouse postemergence trial, weed efficacy; assay type: in vivo, Polygonum convulvus; settings: cloquintocet-mexyl 0 g ai/ha, 20-22 d
Protocol: (§4) Seeds of the desired test plant species were planted in Sun Gro MetroMix® 306 planting mixture, which typically has a pH of 6.0 to 6.8 and an organic matter content of about 30 percent, in plastic pots with a surface area of 103.2 square centimeters (cm^2). When required to ensure good germination and healthy plants, a fungicide treatment and/or other chemical or physical treatment was applied. The plants were grown for 7-36 days (d) in a greenhouse with an approximate 14-hour (h) photoperiod which was maintained at about 18° C. during the day and 17° C. during the night. Nutrients and water were added on a regular basis and supplemental lighting was provided with overhead metal halide 1000-Watt lamps as necessary. The plants were employed for testing when they reached the second or third true leaf stage.
(§5) Weighed amounts of technical material were dissolved in a volume of 97:3 volume per volume (v/v) acetone/dimethyl sulfoxide (DMSO) to stock solutions. […] Compound requirements are based upon a 12 milliliter (mL) application volume at a rate of 187 liters per hectare (L/ha). Stock solutions of the safeners were prepared following the same procedure. Spray solutions of the safeners and experimental compound mixtures were prepared by adding the stock solutions to the appropriate amount of dilution solution to form a 12 mL spray solution in two-way combinations. Formulated compounds were applied to the plant material with an overhead Mandel track sprayer equipped with 8002E nozzles calibrated to deliver 187 L/ha over an application area of 0.503 square meters (m^2) at a spray height of 18 inches (43 centimeters (cm)) above average plant canopy. Control plants were sprayed in the same manner with the solvent blank.
(§6) The treated plants and control plants were placed in a greenhouse as described above and watered by sub-irrigation to prevent wash-off of the test compounds. After 20-22 d, the condition of the test plants as compared with that of the control plants was determined visually and scored on a scale of 0 to 100 percent where 0 corresponds to no injury and 100 corresponds to complete kill. Colby's equation was used to determine the herbicidal effects expected from the mixtures.

lambsquarters (CHEAL) [2] = assay: Greenhouse postemergence trial, weed efficacy; assay type: in vivo, Chenopodium album; settings: herbicide 20 g ae/ha, cloquintocet-mexyl 0 g ai/ha, 20-22 d
Protocol: as §4, §5, §6

Canada thistle (CIRAR) = assay: Small plot field trial, weed growth reduction; assay type: in vivo, Cirsuim arvensis; settings: 20 g ae/ha herbicide (triisopropanol amine salt), no safener, post-emergence, mean
wild pansy (VIOTR) = assay: Greenhouse postemergence trial, weed efficacy; assay type: in vivo, Viola tricolor; settings: cloquintocet-mexyl 0 g ai/ha, 20-22 d
Protocol: as §4, §5, §6

Russian thistle (SASKR) = assay: Greenhouse postemergence trial, weed efficacy; assay type: in vivo, Salsola iberica; settings: cloquintocet-mexyl 0 g ai/ha, 20-22 d
Protocol: as §4, §5, §6

winter wheat (TRZAW) [3] = assay: Greenhouse postemergence safening trial, crop phytotoxicity; assay type: in vivo, Triticum aestivum; settings: herbicide 20 g ae/ha, cloquintocet-mexyl 0 g ai/ha, 20-22 d
Protocol: as §4, §5, §6

spring wheat (TRZAS) = assay: as above; assay type: in vivo, Triticum aestivum; settings: cloquintocet-mexyl 0 g ai/ha, 20-22 d
Protocol: as §4, §5, §6

winter wheat (TRZAW) [4] = assay: Small plot field trial, crop safety; assay type: in vivo, Triticum aestivum; settings: 20 g ae/ha herbicide (triisopropanol amine salt), no safener, post-emergence, mean
Protocol: as §1, §2, §3

kochia (KCHSC) = assay: Greenhouse postemergence trial, weed efficacy; assay type: in vivo, Kochia scoparia; settings: cloquintocet-mexyl 0 g ai/ha, 20-22 d
Protocol: as §4, §5, §6

[5] = test system: bird's-eye speedwell (VERPE); assay: Greenhouse postemergence trial, weed efficacy; assay type: in vivo, Veronica persica; settings: cloquintocet-mexyl 0 g ai/ha, 20-22 d
Protocol: as §4, §5, §6

spring barley (HORVS) = assay: Greenhouse postemergence safening trial, crop phytotoxicity; assay type: in vivo, Hordeum vulgare; settings: cloquintocet-mexyl 0 g ai/ha, 20-22 d
Protocol: as §4, §5, §6

wild mustard (SINAR) = assay: Greenhouse postemergence trial, weed efficacy; assay type: in vivo, Sinapis arvensis; settings: herbicide 20 g ae/ha, cloquintocet-mexyl 0 g ai/ha, 20-22 d
Protocol: as §4, §5, §6

shepherd's purse (CAPBP) = assay: Greenhouse postemergence trial, weed efficacy; assay type: in vivo, Capsella bura-pastoris; settings: herbicide 20 g ae/ha, cloquintocet-mexyl 0 g ai/ha, 20-22 d
Protocol: as §4, §5, §6

Question: What does the source list for CC(F)(F)c1nc(C(=O)O)c(Cl)c(N)c1F [formula I-G-C]?
Answer: Growth reduction of CHEAL, % of untreated (lambsquarters (CHEAL) [1]): 100 % of untreated; TRZDU Visual head deformation, % of untreated (durum wheat (TRZDU)): 23.6 % of untreated; TRZDU Visual injury, % of untreated (durum wheat (TRZDU)): 33.6 % of untreated

Question: Which results are given for CCc1nc(C(=O)O)c(Cl)c(N)c1F [formula I-G-A]?
Answer: % visual injury POLCO Ob (wild buckwheat (POLCO); herbicide 4.375 g ae/ha): 0%; % visual injury POLCO Ob (wild buckwheat (POLCO); herbicide 8.75 g ae/ha): 49%; % visual injury POLCO Ob (wild buckwheat (POLCO); herbicide 17.5 g ae/ha): 40%; % visual injury POLCO Ob (wild buckwheat (POLCO); herbicide 35 g ae/ha): 75%; % visual injury POLCO Ob (wild buckwheat (POLCO); herbicide 70 g ae/ha): 96%; % visual injury CHEAL Ob (lambsquarters (CHEAL) [2]): 85%; Growth reduction of CIRAR, % of untreated (Canada thistle (CIRAR)): 95.5 % of untreated; % visual injury VIOTR Ob (wild pansy (VIOTR); herbicide 4.375 g ae/ha): 3%; % visual injury VIOTR Ob (wild pansy (VIOTR); herbicide 8.75 g ae/ha): 20%; % visual injury VIOTR Ob (wild pansy (VIOTR); herbicide 17.5 g ae/ha): 37%; % visual injury VIOTR Ob (wild pansy (VIOTR); herbicide 35 g ae/ha): 65%; % visual injury VIOTR Ob (wild pansy (VIOTR); herbicide 70 g ae/ha): 82%; % visual injury SASKR Ob (Russian thistle (SASKR); herbicide 4.375 g ae/ha): 67%; % visual injury SASKR Ob (Russian thistle (SASKR); herbicide 8.75 g ae/ha): 72%; % visual injury SASKR Ob (Russian thistle (SASKR); herbicide 17.5 g ae/ha): 75%; % visual injury SASKR Ob (Russian thistle (SASKR); herbicide 35 g ae/ha): 82%; % visual injury SASKR Ob (Russian thistle (SASKR); herbicide 70 g ae/ha): 82%; % visual injury TRZAW Ob (winter wheat (TRZAW) [3]): 25%; % visual injury TRZAS Ob (spring wheat (TRZAS); herbicide 4.375 g ae/ha): 0%; % visual injury TRZAS Ob (spring wheat (TRZAS); herbicide 8.75 g ae/ha): 7%; % visual injury TRZAS Ob (spring wheat (TRZAS); herbicide 17.5 g ae/ha): 33%; % visual injury TRZAS Ob (spring wheat (TRZAS); herbicide 35 g ae/ha): 60%; % visual injury TRZAS Ob (spring wheat (TRZAS); herbicide 70 g ae/ha): 70%; Instances of TRZAW grain reduction, % of untreated (winter wheat (TRZAW) [4]): 39.9 % of untreated; TRZAW grain formation reduction, % of untreated (winter wheat (TRZAW) [4]): 27.9 % of untreated; % visual injury KCHSC Ob (kochia (KCHSC); herbicide 4.375 g ae/ha): 13%; % visual injury KCHSC Ob (kochia (KCHSC); herbicide 8.75 g ae/ha): 23%; % visual injury KCHSC Ob (kochia (KCHSC); herbicide 17.5 g ae/ha): 32%; % visual injury KCHSC Ob (kochia (KCHSC); herbicide 35 g ae/ha): 67%; % visual injury KCHSC Ob (kochia (KCHSC); herbicide 70 g ae/ha): 67%; % visual injury VERPE Ob ([5]; herbicide 4.375 g ae/ha): 0%; % visual injury VERPE Ob ([5]; herbicide 8.75 g ae/ha): 7%; % visual injury VERPE Ob ([5]; herbicide 17.5 g ae/ha): 23%; % visual injury VERPE Ob ([5]; herbicide 35 g ae/ha): 50%; % visual injury VERPE Ob ([5]; herbicide 70 g ae/ha): 77%; Growth reduction of CHEAL, % of untreated (lambsquarters (CHEAL) [1]): 100 % of untreated; TRZDU Visual head deformation, % of untreated (durum wheat (TRZDU)): 4.3 % of untreated; TRZDU Visual injury, % of untreated (durum wheat (TRZDU)): 5.7 % of untreated; % visual injury HORVS Ob (spring barley (HORVS); herbicide 4.375 g ae/ha): 0%; % visual injury HORVS Ob (spring barley (HORVS); herbicide 8.75 g ae/ha): 3%; % visual injury HORVS Ob (spring barley (HORVS); herbicide 17.5 g ae/ha): 10%; % visual injury HORVS Ob (spring barley (HORVS); herbicide 20 g ae/ha): 13%; % visual injury HORVS Ob (spring barley (HORVS); herbicide 35 g ae/ha): 37%; % visual injury HORVS Ob (spring barley (HORVS); herbicide 70 g ae/ha): 47%; % visual injury SINAR Ob (wild mustard (SINAR)): 97%; % visual injury CAPBP Ob (shepherd's purse (CAPBP)): 100%
